Source: patent US20210393662A1, “USE OF SGLT2 INHIBITORS TO TREAT PRIMARY SCLEROSING CHOLANGITIS” (AVOLYNT, priority 2018, published 2021)
Entries after “also recorded” stand apart in the source; their conditions may differ.

Experiments:
TIA mice = assay: TIA murine model of PSC, liver histology and survival after 7 weeks on 0.03% remogliflozin etabonate diet; format: in vivo, mouse; conditions: for periportal and biliary inflammation / proliferation of bile ductules: 0.03% in chow from 4 weeks of age
From the text: The following Examples describe the utilization of a murine model of […] (“PSC”) to assess the effectiveness of a treatment regimen based on the oral administration of remogliflozin etabonate. The murine PSC model is based on mice that are deficient for the expression of tumor necrosis factor alpha (“TNFα”), interleukin 10 (“IL-10”), and activation-induced cytidine deaminase (“AICDA”). As the mice are deficient in TNF, IL-10, and AICDA, they are referred to, herein, as “TIA” mice.
Moreover, as AICDA is required for immunoglobulin (“Ig”) class switching, TIA mice lack IgG and IgA, a phenotype analogous to humans with hyper-IgM syndrome. Therefore, with the combination of AICDA deficiency with the risk factors associated with TNFα and IL-10 deficiencies, TIA mice also develop liver and biliary inflammation reminiscent of PSC symptoms in humans. Accordingly, the TIA model is useful for investigating mechanisms that act early in PSC pathogenesis, as well as treatments that can prevent progression to PSC.
Example 1. Orally-administered remogliflozin etabonate reduces inflammatory cell infiltration, bile ductular proliferation, and interface hepatitis in TIA mice. TIA mice were created by first breeding TNFα knock out (“KO”) C57BL/6 mice, (strain B6.129S-Tnf^tm1Gkl/J, stock #005540, Jackson Laboratories, Bar Harbor, Me.) with IL-10 KO mice (strain B10.129P2(B6)-IL10^tm1Cgn/J, Stock No. 002251, Jackson Laboratories) to produce a population of mice that were deficient in TNFα and IL-10. Because mice with a TNFα−/− and IL10−/− genotype spontaneously develop inflammatory bowel disease (“IBD”) (Hale 2012), a condition associated with poor breeding success (Nagy 2016), the mice needed for further breeding to generate an AICDA population, were generated by breeding offspring with a TNFα−/− and IL10+/− genotype with AICDA−/− mice, which were obtained from Dr. Tasuku Honjo (Muramatsu 2000)), to produce a population of TNFα−/−, IL10−/−, and AICDA+/−(“TI-hetA”) males and females. In turn, TI-hetA pairs were bred to generate populations that were 25% TIA mice, and 50% non-colitis-susceptible TI-hetA littermates that could be used as control populations. All populations were exposed to the same environment from birth. The mice were housed in polycarbonate micro-isolator cages, in individually ventilated racks, under barrier conditions that excluded all known pathogens, including Helicobacter pylori and Norovirus. Mice had ad libitum access to water, and to a standard diet (PicoLab Mouse Diet 20/5058, LabDiet, St. Louis, Mo., USA).
At four (4) weeks of age, TIA (40) and TI-hetA (22) mice were randomized into experimental groups that received either a standard diet (20 TIA and 12 het), or a standard diet formulated 0.03% remogliflozin etabonate (20 TIA and 10 het) (Avolynt Inc., USA). The mice were maintained on this diet for seven (7) weeks. Body weights were obtained three (3) times, weekly, to assess the general health of mice, and to track the development of inflammatory bowel disease (IBD). Glycosuria in the experimental groups was assessed by applying freshly voided urine directly to the glucose test patch on an Accutest® URS-10 urinary reagent test strips (Jant Pharmaceutical Corp., Encino, Calif., USA). Mice were humanely euthanized before reaching the experimental endpoint, of eleven (11) weeks of age, if they lost>15% body weight, or developed rectal prolapse.
To characterize biliary lesions in TIA mice at the end of the 7 week treatment period, liver tissue was obtained from the remogliflozin-treated, and untreated groups, for histologic examination. The excised liver tissue was fixed in Carnoy's fixative solution, and processed into paraffin blocks. The paraffin blocks were sectioned, and stained with Hematoxylin and eosin (H&E) for pathologic analysis. The H&E-stained sections were scored by an American Board of Pathology-certified pathologist. […]

[1] = Plasma pharmacokinetics after oral compressed IR tablet; format: in vivo
From the text: Oral dosage forms according to the invention are typically tablets or capsules. Tablets can be obtained by direct compression of the mixed components of a dosage form, including an effective dosage amount of remogliflozin etabonate, and selected excipients, like cellulose derivatives, metacrylates, chitosan, carboxymethylstarch, or mixtures thereof. For example, a compressed tablet according to the invention, can be prepared by granulating a SGLT2 inhibitor with microcrystalline cellulose and croscarmellose sodium with a water and povidone solution. The resulting granules are dried, milled, and then blended with mannitol, microcrystalline cellulose, and croscarmellose. The blend is lubricated with magnesium stearate and compressed. […] Indeed, Tmax for an IR remogliflozin etabonate oral dosage form according to the invention occurs at 1 hour, or less, following ingestion of the dosage form by a subject.

[2] = TIA mice, H&E liver sections at 11 weeks, vs untreated
[3] = TIA mice, H&E liver sections at 11 weeks, vs untreated, listed as Remo

## CCOC(=O)OC[C@H]1O[C@@H](Oc2nn(C(C)C)c(C)c2Cc2ccc(OC(C)C)cc2)[C@H](O)[C@@H](O)[C@@H]1O [remogliflozin etabonate]
TIA mice; Remo group versus control group
  number of TIA mice that required early euthanasia: no statistical difference
TIA mice; Remo group versus control group, not statistically significant
  early death: trend toward decreased early death
TIA mice; [2]
  periportal and biliary inflammation: less inflammation
  proliferation of bile ductules: reduces; also recorded: less proliferation
TIA mice; [3]
  periportal and biliary inflammation: decrease
  proliferation of bile ductules: decrease
TIA mice; TIA mice, 0.03% in diet for 7 weeks, H&E liver sections at 11 weeks, vs untreated
  inflammation at the interface between hepatic parenchyma and portal tracts (interface hepatitis): reduces; also recorded: less inflammation
TIA mice; TIA mice, 0.03% in diet for 7 weeks, vs standard diet
  development and progression of liver and biliary disease (PSC disease pathology): markedly less development and progression; also recorded: prevents the progression
TIA mice; TIA mice, orally administered
  inflammatory cell infiltration: reduces
[1]; IR remogliflozin etabonate oral dosage form, following ingestion
  Tmax: ≤ 1 h
[1]; compressed IR tablet, 350 mg remogliflozin etabonate, oral, after 3 hrs
  remogliflozin plasma concentration (plasma clearance to): 40 ng/mL
[1]; compressed IR tablet, 350 mg remogliflozin etabonate, oral, at 1 hr post-ingestion
  maximum remogliflozin plasma concentration (Cmax): 160 ng/mL
